Assay results reported in publication PMC8965496, “Combating multidrug resistance and metastasis of breast cancer by endoplasmic reticulum stress and cell-nucleus penetration enhanced immunochemotherapy” (Theranostics, 2022).

Test system: MCF-7/ADR drug resistant cell line
Assay: IC50 of DOX against drug-resistant cell line
Assay type: cell-based
Settings: ratio MCF-7/ADR to MCF-7

COc1cccc2c1C(=O)c1c(O)c3c(c(O)c1C2=O)C[C@@](O)(C(=O)CO)C[C@@H]3O[C@H]1C[C@H](N)[C@H](O)[C@H](C)O1 [DOX, doxorubicin]
IC50 in MCF-7/ADR cells relative to MCF-7 cells: 108.07 fold
